The assay concerns the target T1, Phosphatidylinositol 4,5-bisphosphate 3-kinase catalytic subunit delta isoform (Homo sapiens, UniProt O00329).
T1 sequence (O00329 whole entry): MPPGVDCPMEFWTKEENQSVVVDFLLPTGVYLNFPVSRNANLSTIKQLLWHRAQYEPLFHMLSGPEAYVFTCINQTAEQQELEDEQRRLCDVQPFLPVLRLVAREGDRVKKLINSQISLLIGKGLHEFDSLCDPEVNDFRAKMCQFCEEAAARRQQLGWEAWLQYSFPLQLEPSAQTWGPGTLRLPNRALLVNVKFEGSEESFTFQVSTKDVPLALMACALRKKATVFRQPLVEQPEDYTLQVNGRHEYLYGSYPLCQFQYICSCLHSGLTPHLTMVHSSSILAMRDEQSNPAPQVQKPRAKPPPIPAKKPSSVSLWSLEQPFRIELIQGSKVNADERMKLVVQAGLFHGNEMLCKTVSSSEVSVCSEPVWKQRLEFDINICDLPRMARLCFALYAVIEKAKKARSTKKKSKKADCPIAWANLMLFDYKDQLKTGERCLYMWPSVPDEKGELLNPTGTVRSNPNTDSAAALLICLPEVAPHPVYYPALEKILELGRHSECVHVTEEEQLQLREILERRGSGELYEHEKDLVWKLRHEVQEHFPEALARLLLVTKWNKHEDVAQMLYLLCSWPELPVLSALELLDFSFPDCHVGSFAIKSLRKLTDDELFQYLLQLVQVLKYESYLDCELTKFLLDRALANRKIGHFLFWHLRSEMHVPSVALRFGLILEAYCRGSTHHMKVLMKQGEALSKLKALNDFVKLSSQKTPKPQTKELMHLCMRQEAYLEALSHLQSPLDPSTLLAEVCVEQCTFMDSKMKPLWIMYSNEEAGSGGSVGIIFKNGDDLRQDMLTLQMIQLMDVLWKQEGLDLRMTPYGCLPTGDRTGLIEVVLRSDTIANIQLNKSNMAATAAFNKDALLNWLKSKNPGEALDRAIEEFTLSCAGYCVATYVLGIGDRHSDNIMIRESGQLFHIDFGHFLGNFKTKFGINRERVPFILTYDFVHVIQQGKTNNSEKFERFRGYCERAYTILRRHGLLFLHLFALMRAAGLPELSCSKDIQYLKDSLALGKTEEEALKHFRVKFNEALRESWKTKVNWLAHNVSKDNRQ
In words: Scintillation Proximity Assay. The protocol: The kinase reaction was conducted in polystyrene 384-well matrix white plate from Thermo Fisher Scientific in a final volume of 25 uL. Inhibitors were first diluted serially in DMSO and added to the plate wells before the addition of other reaction components. The final concentration of DMSO in the assay was 0.5%. The PI3K assays were carried out at room temperature in 20 mM MOPS, pH 6.7, 10 mM MgCl2, 5 mM DTT and CHAPS 0.03%. Reactions were initiated by the addition of ATP, the final reaction mixture consisted of 20 uM PIP2, 20 uM ATP, 0.2 uCi [gamma-33P]ATP, 4 nM PI3Kdelta. […] 25 mM EDTA, 400 uM ATP. The final concentration of SPA beads was 1.0 mg/mL. After the plate sealing, plates were shaken overnight at room temperature and centrifuged at 1800 rpm for 10 minutes, the radioactivity of the product was determined by scintillation counting on Topcount (PerkinElmer).

On to `CCOc1c(C(C)n2cc(C)c3c(N)ncnc32)cc(Cl)c(C#N)c1C1CN([C@@H](C)CO)C1` (stereo partly drawn) [US10646492, Example 309], for which the concentration for half-maximal inhibition (IC50) was less than 10 nM. Turning to `COc1c(C(C)n2nc(C)c3c(N)ncnc32)cc(Cl)c(C)c1-c1ccnc(C(=O)C(C)C)c1` (stereo not drawn) [US10646492, Example 16], the IC50 was less than 10 nM. The value for `COc1c([C@H](C)n2cc(C)c3c(N)ncnc32)cc(Cl)c(C#N)c1C1CN([C@@H](C)CO)C1` [US10646492, Example 362] was less than 10 nM.

The record behind these values is BindingDB's records for patent US10646492 (Incyte Corporation; Incyte Holdings Corporation, 2020).
